Data as given in paper PMC12851007 (Angewandte Chemie (International Ed. in English), 2025).
Where a SMILES comes first, the peptide text is derived from it.

Columns and labels:
[1] = CX4/LCG tandem membrane assay with subsequent addition of spermine (transient vs stable pores); format: in vitro ADME; settings: TP10 0.2 µM or melittin 5 nM at 60 s, spermine 20 µM at 340 s, 10 mM Hepes, 175 mM glucose, pH 7.5
Method: This means that TP10 renders the vesicle membranes only transiently permeable, while after some time, the pores “close”, most likely due to equilibration of the inside and outside concentrations of TP10. At sufficiently low TP10 concentrations, the vesicles have consequently released only some of their content after a certain incubation time and no further release of encapsulated compounds is observed thereafter. The transient nature of the TP10 pores was also confirmed herein by the CX4/LCG tandem membrane assay (Figure 4, black line). […] At this point of time, the TP10 pores should be either closed, or there should be some remaining stable equilibrium pores, which are too small to allow efflux of relatively large CX4 and/or LCG (MW > 500 Da), but sufficiently large to allow CF efflux (MW = 376 Da). Closed pores would refer to the previously reported graded mechanism, whereas the latter would point toward an all‐or‐none release mechanism.^[ [12], [70] ^] […] The newly developed assay has therefore the added capacity to afford more fine‐grained mechanistic information on membrane activity.
The blue trace is a control to illustrate full dissociation of the CX4/LCG complex during vesicle lysis by TX‐100.
LysisLysis vesicle lysisvesicle lysis […]
calibration cocktail at 600 s. a) Original changes in fluorescence intensity of LCG ( λex = 369 nm, λem = […]

[2] = CX4/LCG supramolecular tandem membrane assay, EYPC vesicles; format: in vitro ADME; settings: 25 µM lipid, EYPC⊃CX4/LCG-LUVs, 10 mM Hepes, pH 7.5, 25 °C; fractional activity at 590 s, Hill fit; error = SD of fit, n = 1
Method: Membrane Activity M easurements
Vesicle preparation. 100 µ L of a solution of 25 mg/ml of POPC in chloroform or 200 µ L of a solution of 25 mg/ml of EYPC in chloroform was purged with nitrogen and dried overnight under hi gh vacuum. The thin lipid film was rehydrated with 1 ml reh ydrati on buffer (= inside buffer, see Tabl e S2 ) b y agitation at room temperature for 30min and then subjected to 2 0 freeze- th aw c ycles (freezing in liquid nitro gen and thawing at 40 °C). […]
Ta b l e S 2. Combinations of lipids and inside and outside buffer for CX4/LCG -LUVs.
No. Lipid Inside buffer = rehydration buffer Outside buffer […]
Vesicle quality control. T o ensure the absence of the CX4/ LCG reporter pair in the ex travesicular ph ase, 20 µL of the collected liposome fr action w as diluted to 2 ml with outside buffer and the fluor escen ce (λ exc = 369 nm; λ em = 502 nm) was recorded during the addition of […]
A co nstant fluorescenc e intensity durin g the addition of the stron gl y bindin g sp ermine verified the complete removal o f unencapsulated materi al. The size distribution of the liposomes was confirmed b y DLS to be unimodal and in the range of 120 to 150 nm diameter. […] Subsequently, the time-dependent change in fluorescence intensity (λ exc = 369 nm; λ em = 502 nm) was record ed during addition of 20 µ L of peptide stock solutions of varying concentrations at 60 s. […]

Row | Structure (SMILES) | kind of pores (fluorescence response to spermine added after the peptide) [1] | EC50 [2] [µM]
1 | CC[C@H](C)[C@H](NC(=O)[C@H](CCCCN)NC(=O)[C@H](CCCCN)NC(=O)[C@H](C)NC(=O)[C@H](CC(C)C)NC(=O)[C@H](C)NC(=O)[C@H](C)NC(=O)[C@H](CC(C)C)NC(=O)[C@H](C)NC(=O)[C@H](CCCCN)NC(=O)[C@H](CC(C)C)NC(=O)[C@H](CC(N)=O)NC(=O)[C@@H](NC(=O)[C@H](CCCCN)NC(=O)CNC(=O)[C@H](CC(C)C)NC(=O)[C@H](CC(C)C)NC(=O)[C@H](Cc1ccc(O)cc1)NC(=O)CNC(=O)[C@H](C)N)[C@@H](C)CC)C(=O)N[C@@H](CC(C)C)C(=O)O [TP10] | absence of stable TP10 pores | 
2 | CC[C@H](C)[C@H](NC(=O)[C@H](CCCCN)NC(=O)[C@@H](NC(=O)[C@@H](N)CCC(N)=O)[C@@H](C)CC)C(=O)N[C@@H](Cc1c[nH]c2ccccc12)C(=O)N[C@@H](Cc1ccccc1)C(=O)N[C@@H](CCC(N)=O)C(=O)N[C@@H](CC(N)=O)C(=O)N[C@@H](CCCNC(=N)N)C(=O)N[C@@H](CCCNC(=N)N)C(=O)N[C@@H](CCSC)C(=O)N[C@@H](CCCCN)C(=O)N[C@@H](Cc1c[nH]c2ccccc12)C(=O)N[C@@H](CCCCN)C(=O)N[C@@H](CCCCN)C(=O)O (H-QIKIWFQNRRMKWKK-OH) |  | 14 ± 3
